Values quoted from earlier work in patent US20110293690A1, “Biodegradable Polymer Encapsulated Microsphere Particulate Film and Method of Making Thereof” (Tyco Healthcare Group LP, priority 2010, published 2011).
Counter-ions that a name gives are not always drawn. Like-named read-outs stand apart in the source and are kept apart here.

How the values were obtained:
[1] = in water, stated in words

Row | SMILES | pKa | aqueous solubility ([1]; listed as free base form of bupivacaine) | aqueous solubility ([1]; hydrochloride)
1 | CCCCN1CCCCC1C(=O)Nc1c(C)cccc1C (stereo not drawn) [Bupivacaine, bupivacaine] | about 8.1 | lower aqueous solubility | –
2 | CCCCN1CCCCC1C(=O)Nc1c(C)cccc1C (stereo not drawn) [salt form of bupivacaine, bupivacaine hydrochloride] | – | – | soluble in water
